Source: US7763615B2, “Ecteinascidin analogs for use as antitumour agents” (priority 2001, dated 2010)
Like-named read-outs stand apart in the source and are kept apart here.

Key:
HT29 = experiment: cells; format: cell-based; details: for GI50 / TGI / CC50 / IC (TGI): HT29, 48 hours exposure, SRB; for CC50: read-out: LC50 (the source's name)
Excerpt: (§1) The finality of these assays is to interrupt the growth of a “in vitro” tumor cell culture by means of a continued exhibition of the cells to the sample to be testing.
(§2) A colorimetric type of assay, using sulphorhodamine B (SRB) reaction has been adapted for a quantitative measurement of cell growth and viability [following the technique described by Philip Skehan, et al. (1990), New colorimetric cytotoxicity assay for anticancer drug screening, J. Natl. Cancer Inst., 82:1107-1112]
(§3) This form of the assay employs 96 well cell culture microplates of 9 mm diameter (Faircloth, 1988; Mosmann, 1983). Most of the cell lines are obtained from American Type Culture Collection (ATCC) derived from different human cancer types.
(§4) Cells are maintained in RPMI 1640 10% FBS, supplemented with 0.1 g/l penicillin and 0.1 g/l streptomycin sulphate and then incubated at 37° C., 5% CO2 and 98% humidity. For the experiments, cells were harvested from subconfluent cultures using trypsin and resuspended in fresh medium before plating.
(§5) Cells are seeded in 96 well microtiter plates, at 5×10^3 cells per well in aliquots of 195 μl medium, and they are allowed to attach to the plate surface by growing in drug free medium for 18 hours. Afterward, samples are added in aliquots of 5 μl in a ranging from 10 to 10^−8 μg/ml, dissolved in DMSO/EtOH/PBS (0.5:0.5:99). After 48 hours exposure, the antitumor effect are measured by the SRB methodology: cells are fixed by adding 50 μl of cold 50% (wt/vol) trichloroacetic acid (TCA) and incubating for 60 minutes at 4° C. Plates are washed with deionized water and dried. One hundred μl of SRB solution (0.4% wt/vol in 1% acetic acid) is added to each microtiter well and incubated for 10 minutes at room temperature. Unbound SRB is removed by washing with 1% acetic acid. Plates are air dried and bound stain is solubilized with Tris buffer. Optical densities are read on a automated spectrophotometric plate reader at a single wavelength of 490 nm.
(§6) The values for mean+/− SD of data from triplicate wells are calculated. Some parameters for cellular responses can be calculated: GI=growth inhibition, TGI=total growth inhibition (cytostatic effect) and LC=cell killing (cytotoxic effect).

A549 = experiment: cells; format: cell-based; details: for GI50 / CC50 / IC (TGI) / TGI: A549, 48 hours exposure, SRB; for GI50: read-out: GI50; for CC50: read-out: LC50 (the source's name); for IC (TGI): read-out: TGI
Excerpt: as §1, §2, §3, §4, §5, §6

COc1c(C)cc2c(c1O)[C@@H]1C3[C@@H]4SC[C@]5(NC(C)Cc6c5[nH]c5ccc(O)cc65)C(=O)COC[C@@H](c5c6c(c(C)c(OC(C)=O)c54)OCO6)N3[C@@H](C#N)[C@H](C2)N1C (some centres unmarked) [Compound 12]
GI50 (HT29): 13.7 nM | TGI (HT29): 1.26E−07 Molar | CC50 (HT29; Homo sapiens, HT-29, 48 h): 12.6 µM | GI50 (A549; Homo sapiens, A549, 48 h): 7.28 nM | CC50 (A549; Homo sapiens, A549, 48 h): 12.6 µM | IC (TGI) (A549; Homo sapiens, A549, 48 h): 0.0835 µM

COc1c(C)cc2c(c1O)[C@@H]1C3[C@@H]4SC[C@]5(NC(C)Cc6c5[nH]c5ccccc65)C(=O)COC[C@@H](c5c6c(c(C)c(OC(C)=O)c54)OCO6)N3[C@@H](C#N)[C@H](C2)N1C (some centres unmarked) [Compound 19]
GI50 (HT29): 4.45 nM | TGI (HT29): 1.29E−07 Molar | CC50 (HT29): 12.9 µM | TGI (A549): 1.29E−08 Molar | GI50 (A549): 3.27 nM | CC50 (A549): 12.9 µM

C=CCOc1c(OC)c(C)cc2c1[C@@H]1C3[C@@H]4SC[C@]5(C(=O)COC[C@@H](c6c7c(c(C)c(OC(C)=O)c64)OCO7)N3[C@@H](C#N)[C@H](C2)N1C)c1[nH]c2ccccc2c1CCN5CC=C (some centres unmarked) [Compound 25]
GI50 (HT29; Homo sapiens, HT-29, 48 h): 11800 nM | IC (TGI) (HT29; Homo sapiens, HT-29, 48 h): 11.8 µM | CC50 (HT29; Homo sapiens, HT-29, 48 h): 11.8 µM | GI50 (A549; Homo sapiens, A549, 48 h): 11800 nM | CC50 (A549; Homo sapiens, A549, 48 h): 11.8 µM | IC (TGI) (A549; Homo sapiens, A549, 48 h): 11.8 µM

C=CCOc1c(OC)c(C)cc2c1[C@@H]1C3[C@@H]4SC[C@]5(NCCc6c5[nH]c5ccccc65)C(=O)COC[C@@H](c5c6c(c(C)c(OC(C)=O)c54)OCO6)N3[C@@H](C#N)[C@H](C2)N1C (some centres unmarked) [Compound 24]
GI50 (HT29; Homo sapiens, HT-29, 48 h): 12400 nM | IC (TGI) (HT29; Homo sapiens, HT-29, 48 h): 12.4 µM | CC50 (HT29; Homo sapiens, HT-29, 48 h): 12.4 µM | GI50 (A549; Homo sapiens, A549, 48 h): 12400 nM | CC50 (A549; Homo sapiens, A549, 48 h): 12.4 µM | IC (TGI) (A549; Homo sapiens, A549, 48 h): 12.4 µM

COc1c(C)cc2c(c1O)[C@@H]1C3[C@@H]4SC[C@]5(NCCc6c5[nH]c5ccc(O)cc65)C(=O)COC[C@@H](c5c6c(c(C)c(OC(C)=O)c54)OCO6)N3[C@@H](C#N)[C@H](C2)N1C (some centres unmarked) [Compound 6]
GI50 (HT29; Homo sapiens, HT-29, 48 h): 5.13 nM | IC (TGI) (HT29; Homo sapiens, HT-29, 48 h): 0.00513 µM | CC50 (HT29; Homo sapiens, HT-29, 48 h): 5.13 µM | GI50 (A549; Homo sapiens, A549, 48 h): 5.13 nM | CC50 (A549; Homo sapiens, A549, 48 h): 12.8 µM | IC (TGI) (A549; Homo sapiens, A549, 48 h): 0.0513 µM

COc1c(C)cc2c(c1O)[C@@H]1C3[C@@H]4SC[C@]5(NCCc6c5[nH]c5ccccc65)C(=O)COC[C@@H](c5c6c(c(C)c(OC(C)=O)c54)OCO6)N3[C@@H](C#N)[C@H](C2)N1C (some centres unmarked) [Compound 1]
IC50 (HT29; Homo sapiens, HT-29, HT29): 1.31 nM | IC50 (A549; Homo sapiens, A549): 1.31 nM

COc1c(C)cc2c(c1O)[C@@H]1C3[C@@H]4SC[C@]5(NCCc6c5[nH]c5ccc(C)cc65)C(=O)COC[C@@H](c5c6c(c(C)c(OC(C)=O)c54)OCO6)N3[C@@H](C#N)[C@H](C2)N1C (some centres unmarked) [Compound 5]
GI50 (HT29; Homo sapiens, HT-29, 48 h): 12.9 nM | IC (TGI) (HT29; Homo sapiens, HT-29, 48 h): 0.0129 µM | CC50 (HT29; Homo sapiens, HT-29, 48 h): 5.14 µM | GI50 (A549; Homo sapiens, A549, 48 h): 12.9 nM | CC50 (A549; Homo sapiens, A549, 48 h): 12.9 µM | IC (TGI) (A549; Homo sapiens, A549, 48 h): 0.129 µM

COc1c(C)cc2c(c1O)[C@@H]1C3[C@@H]4SC[C@]5(NC(C)Cc6c5[nH]c5ccc(O)cc65)C(=O)COC[C@@H](c5c6c(c(C)c(OC(C)=O)c54)OCO6)N3[C@@H](C#N)[C@H](C2)N1C (some centres unmarked) [Compound 13]
GI50 (HT29): 333 nM | TGI (HT29): 1.26E−06 Molar | CC50 (HT29): 12.6 µM | TGI (A549): 6.79E−08 Molar | GI50 (A549): 6.31 nM | CC50 (A549): 12.6 µM

COc1ccc2c3c([nH]c2c1)[C@@]1(CS[C@@H]2c4c(OC(C)=O)c(C)c5c(c4[C@H](COCC1=O)N1C2[C@H]2c4c(cc(C)c(OC)c4O)C[C@@H]([C@@H]1C#N)N2C)OCO5)NCC3 (some centres unmarked) [Compound 9]
GI50 (HT29; Homo sapiens, HT-29, 48 h): 378 nM | IC (TGI) (HT29; Homo sapiens, HT-29, 48 h): 0.378 µM | CC50 (HT29; Homo sapiens, HT-29, 48 h): 12.6 µM | GI50 (A549; Homo sapiens, A549, 48 h): 25.2 nM | CC50 (A549; Homo sapiens, A549, 48 h): 8.82 µM | IC (TGI) (A549; Homo sapiens, A549, 48 h): 0.101 µM

CCCC(=O)Oc1c(OC)c(C)cc2c1[C@@H]1C3[C@@H]4SC[C@]5(NCCc6c5[nH]c5ccccc65)C(=O)COC[C@@H](c5c6c(c(C)c(OC(C)=O)c54)OCO6)N3[C@@H](C#N)[C@H](C2)N1C (some centres unmarked) [Compound 20]
GI50 (HT29; Homo sapiens, HT-29, 48 h): 596 nM | IC (TGI) (HT29; Homo sapiens, HT-29, 48 h): 12 µM | CC50 (HT29; Homo sapiens, HT-29, 48 h): 12 µM | GI50 (A549; Homo sapiens, A549, 48 h): 330 nM | CC50 (A549; Homo sapiens, A549, 48 h): 6.77 µM | IC (TGI) (A549; Homo sapiens, A549, 48 h): 1.2 µM
